Test system: Caco-2 cells
Assay: Effect of curcumin on efflux transporters and permeability in Caco-2 cells
Format: cell-based
Conditions: in vitro studies, data not shown

In the case of `COc1cc(/C=C/C(=O)CC(=O)/C=C/c2ccc(O)c(OC)c2)ccc1O` [curcumin, Curcumin], the “effect on efflux transporters” value is reported as “down-regulation of BCRP, MDR1 and MRP1”.

Reference: publication PMC4012000 (Pharmaceutical research, 2013)
